Measurements published in patent US20260216105A1, “CAPSAICIN EMULSION COMPOSITION, PREPARATION METHOD THEREFOR, AND USE THEREOF” (priority 2022, published 2026).
Converted amounts (≈) assume the structure as drawn.

How the values were obtained:
Type in all cases: physicochemical
[1] = Physical phenomena of active ingredient / water-soluble solvent / water ternary mixtures; conditions: for formation of a liquid-liquid phase separation system with ethanol and water: bupivacaine:EtOH 1:2, ropivacaine:EtOH 1:10; for mass ratio of water:EtOH (x:1) forming a liquid-liquid phase separation state: both at 0 h and 24 h after standing
Method: (§1) A stock solution was prepared with a mass ratio of CAP:EtOH=1:5. Then, 0.5 g samples of the stock solution were taken and respectively added into PE tubes, and different amounts of water (based on mass ratio of water to CAP) were added according to Table 6. […]
According to the protocols in Examples 4.1-4.3, the physical states of mixtures containing CAP and EtOH (at mass ratios of 1:1, 1:5, and 1:10) and different proportions of water (based on mass ratio of water to CAP) were studied at 0 h and 24 h after standing. […]
as §1, with “bupivacaine:EtOH=1:2.” for “CAP:EtOH=1:5.”, “on” for “on mass”, “bupivacaine)” for “CAP)”, “14. The ternary mixtures were shaken and observed at 0 h and 24 h after standing.” for “6.”

physchem = conditions: for solubility at 24 h: 25 °C, thermodynamic from solid
Method: About 3 g of each solvent was weighed according to Table 3, and an excess amount of capsaicin was added. The mixture was placed into a constant-temperature oscillator for oscillation for 24 h (25° C., 200 rpm), and then centrifuged at 10000 rpm for 30 min. The supernatant was taken to measure the capsaicin content. The solubility of CAP in different solvents (different pH buffers, commonly used oil phases, and water-soluble organic solvents) was measured, with the results shown in Table 3: […]

[2] = Physical phenomena of active ingredient / water-soluble solvent / water ternary mixtures

## CCCN1CCCC[C@H]1C(=O)Nc1c(C)cccc1C [ropivacaine]
[1]
  formation of a liquid-liquid phase separation system with ethanol and water: failed to form a liquid-liquid phase separation system

## COc1cc(CNC(=O)CCCC/C=C/C(C)C)ccc1O [CAP, capsaicin]
physchem; oil or lipid, Castor oil, shaken at 25° C. for 24 h
  solubility at 24 h: 36000 µg/mL (≈ 118 mM)
physchem; oil or lipid, GDO, shaken at 25° C. for 24 h
  solubility at 24 h: 45000 µg/mL (≈ 147 mM)
physchem; oil or lipid, MCT, shaken at 25° C. for 24 h
  solubility at 24 h: 14000 µg/mL (≈ 45.8 mM)
physchem; organic solvent or mixture, DGME, shaken at 25° C. for 24 h
  solubility at 24 h: 502000 µg/mL (≈ 1640 mM)
physchem; organic solvent or mixture, DMI, shaken at 25° C. for 24 h
  solubility at 24 h: > 500000 µg/mL
physchem; organic solvent or mixture, Ethanol, shaken at 25° C. for 24 h
  solubility at 24 h: > 500000 µg/mL
physchem; organic solvent or mixture, Isopropanol, shaken at 25° C. for 24 h
  solubility at 24 h: > 500000 µg/mL
physchem; organic solvent or mixture, PEG200, shaken at 25° C. for 24 h
  solubility at 24 h: 367000 µg/mL (≈ 1200 mM)
physchem; organic solvent or mixture, Propylene glycol, shaken at 25° C. for 24 h
  solubility at 24 h: 290000 µg/mL (≈ 950 mM)
physchem; organic solvent or mixture, in some water-soluble organic solvents
  solubility at 24 h: > 250000 µg/mL
physchem; pH 1, simulated gastric fluid, pH 1.0 hydrochloric acid medium, shaken at 25° C. for 24 h
  solubility at 24 h: 45 µg/mL (≈ 0.147 mM)
physchem; pH 2, simulated gastric fluid, pH 2.0 hydrochloric acid medium, shaken at 25° C. for 24 h
  solubility at 24 h: 52 µg/mL (≈ 0.17 mM)
physchem; pH 3, aqueous buffer, pH 3.0 phosphate medium, shaken at 25° C. for 24 h
  solubility at 24 h: 44 µg/mL (≈ 0.144 mM)
physchem; pH 4, aqueous buffer, pH 4.0 acetate medium, shaken at 25° C. for 24 h
  solubility at 24 h: 53 µg/mL (≈ 0.174 mM)
physchem; pH 5, aqueous buffer, pH 5.0 acetate medium, shaken at 25° C. for 24 h
  solubility at 24 h: 52 µg/mL (≈ 0.17 mM)
physchem; pH 6, aqueous buffer, pH 6.0 phosphate medium, shaken at 25° C. for 24 h
  solubility at 24 h: 46 µg/mL (≈ 0.151 mM)
physchem; pH 7, aqueous buffer, pH 7.0 phosphate medium, shaken at 25° C. for 24 h
  solubility at 24 h: 45 µg/mL (≈ 0.147 mM)
physchem; pH 8, aqueous buffer, pH 8.0 phosphate medium, shaken at 25° C. for 24 h
  solubility at 24 h: 42 µg/mL (≈ 0.138 mM)
physchem; pH 9, aqueous buffer, pH 9.0 carbonate medium, shaken at 25° C. for 24 h
  solubility at 24 h: 53 µg/mL (≈ 0.174 mM)
physchem; pH 10, aqueous buffer, pH 10.0 carbonate medium, shaken at 25° C. for 24 h
  solubility at 24 h: 102 µg/mL (≈ 0.334 mM)
physchem; Corn oil, shaken at 25° C. for 24 h
  Solubility: 5000 µg/mL (≈ 16.4 mM)
physchem; Peanut oil, shaken at 25° C. for 24 h
  Solubility: 5000 µg/mL (≈ 16.4 mM)
physchem; Rapeseed oil, shaken at 25° C. for 24 h
  Solubility: 5000 µg/mL (≈ 16.4 mM)
[1]; CAP:EtOH 1:1
  mass ratio of water:EtOH (x:1) forming a liquid-liquid phase separation state: 0.65-2
[1]; CAP:EtOH 1:5
  mass ratio of water:EtOH (x:1) forming a liquid-liquid phase separation state: 1-2.2
[1]; CAP:EtOH 1:10
  mass ratio of water:EtOH (x:1) forming a liquid-liquid phase separation state: 1.4-2.5
[1]; CAP:PEG200 1:3
  formation of a liquid-liquid phase separation system with PEG200 and water: could not form a liquid-liquid phase separation system
[1]; CAP:PEG200 1:5 (increased mass of PEG200)
  formation of a liquid-liquid phase separation system with PEG200 and water: failed to enable the formation of a liquid-liquid phase separation system
[1]; CAP:propylene glycol 1:5
  formation of a liquid-liquid phase separation system with propylene glycol and water: failed to form a liquid-liquid phase separation system
[2]; CAP:DGME 1:1
  mass ratio of water:DGME (x:1) forming a liquid-liquid phase separation system: 1-2
[2]; CAP:DMI 1:3
  mass ratio of water:DMI (x:1) forming a liquid-liquid phase separation system: 0.3-2
[2]; CAP:IPA 1:1
  mass ratio of water:IPA (x:1) forming a liquid-liquid phase separation system: 0.5-2

## CCCCN1CCCCC1C(=O)Nc1c(C)cccc1C (stereo not shown) [bupivacaine]
[1]
  formation of a liquid-liquid phase separation system with ethanol and water: failed to form a liquid-liquid phase separation system
